Reference: ChEMBL document CHEMBL1139069, “Novel antiproliferative analogs of the Taq DNA polymerase inhibitor catalpol” (2007)

Key:
Format in all cases: functional
HBL-100 [1] = experiment: Cell cycle arrest in human HBL100 cells assessed as accumulation at G0/G1 phase at 5 uM after 24 hrs by flow cytometry
SW1573 [2] = experiment: Cell cycle arrest in human SW1573 cells assessed as accumulation at S phase at 5 uM after 24 hrs by flow cytometry
HBL-100 [3] = experiment: Antiproliferative activity against human HBL100 cells after 48 hrs by SRB assay; settings: HBL-100, 48 h
SW1573 [4] = experiment: Antiproliferative activity against human SW1573 cells after 48 hrs by SRB assay; settings: SW1573, 48 h
A2780 = experiment: Antiproliferative activity against human A2780 cells after 48 hrs by SRB assay; settings: A2780, 48 h
HBL-100 [5] = experiment: Cell cycle arrest in human HBL100 cells assessed as accumulation at G2/M phase at 10 uM after 24 hrs by flow cytometry
SW1573 [6] = experiment: Cell cycle arrest in human SW1573 cells assessed as accumulation at S phase at 10 uM after 24 hrs by flow cytometry
SW1573 [7] = experiment: Cell cycle arrest in human SW1573 cells assessed as accumulation at G2/M phase at 5 uM after 24 hrs by flow cytometry
SW1573 [8] = experiment: Cell cycle arrest in human SW1573 cells assessed as accumulation at G0/G1 phase at 5 uM after 24 hrs by flow cytometry
SW1573 [9] = experiment: Cell cycle arrest in human SW1573 cells assessed as accumulation at G0/G1 phase at 10 uM after 24 hrs by flow cytometry
HBL-100 [10] = experiment: Cell cycle arrest in human HBL100 cells assessed as accumulation at S phase at 10 uM after 24 hrs by flow cytometry
SW1573 [11] = experiment: Cell cycle arrest in human SW1573 cells assessed as accumulation at G2/M phase at 10 uM after 24 hrs by flow cytometry
T47D = experiment: Antiproliferative activity against human T47D cells after 48 hrs by SRB assay
HeLa = experiment: Antiproliferative activity against human HeLa cells after 48 hrs by SRB assay
HBL-100 [12] = experiment: Cell cycle arrest in human HBL100 cells assessed as accumulation at G2/M phase at 5 uM after 24 hrs by flow cytometry
HBL-100 [13] = experiment: Cell cycle arrest in human HBL100 cells assessed as accumulation at S phase at 5 uM after 24 hrs by flow cytometry
WiDr = experiment: Antiproliferative activity against human WiDr cells after 48 hrs by SRB assay
HBL-100 [14] = experiment: Cell cycle arrest in human HBL100 cells assessed as accumulation at G0/G1 phase at 10 uM after 24 hrs by flow cytometry

Compound | Activity (HBL-100 [1]) [%] | Activity (SW1573 [2]) [%] | GI50 (HBL-100 [3]) [nM] | GI50 (SW1573 [4]) [µM] | GI50 (A2780) [µM] | Activity (HBL-100 [5]) [%] | Activity (SW1573 [6]) [%] | Activity (SW1573 [7]) [%] | Activity (SW1573 [8]) [%] | Activity (SW1573 [9]) [%] | Activity (HBL-100 [10]) [%] | Activity (SW1573 [11]) [%] | GI50 (T47D) [µM] | GI50 (HeLa) [µM] | Activity (HBL-100 [12]) [%] | Activity (HBL-100 [13]) [%] | GI50 (WiDr) [µM] | Activity (HBL-100 [14]) [%]
CC(C)(C)[Si](C)(C)OC[C@H]1O[C@H](O[C@@H]2OC=C[C@H]3[C@H](O)[C@@H]4O[C@]4(CO[Si](C)(C)C(C)(C)C)[C@@H]23)[C@H](O)[C@@H](O)[C@@H]1O | 54 | 37 | 2800 | 4.8 | 2.6 | 19 | 20 | 14 | 49 | 63 | 30 | 17 | 3.6 | 3.6 | 11 | 35 | 2.7 | 51
CC(C)(C)[Si](OC[C@H]1O[C@H](O[C@@H]2OC=C[C@H]3[C@H](O)[C@@H]4O[C@]4(CO[Si](c4ccccc4)(c4ccccc4)C(C)(C)C)[C@@H]23)[C@H](O)[C@@H](O)[C@@H]1O)(c1ccccc1)c1ccccc1 | 52 | 32 | 2700 | 2.7 | 2.4 | 13 | 28 | 14 | 54 | 61 | 28 | 11 | 4.1 | 4.4 | 15 | 33 | 3.4 | 59
CC(C)(C)[Si](OC[C@H]1O[C@H](O[C@@H]2OC=C[C@H]3[C@H](O[Si](c4ccccc4)(c4ccccc4)C(C)(C)C)[C@@H]4O[C@]4(CO[Si](c4ccccc4)(c4ccccc4)C(C)(C)C)[C@@H]23)[C@H](O)[C@@H](O)[C@@H]1O)(c1ccccc1)c1ccccc1 | 56 | 29 | 2400 | 1.8 | 2.4 | 11 | 37 | 13 | 58 | 59 | 30 | 4 | 2.7 | 2.1 | 12 | 32 | 2 | 59
CC(=O)OC[C@H]1O[C@H](O[C@@H]2OC=C[C@H]3[C@H](OC(C)=O)[C@@H]4O[C@]4(COC(C)=O)[C@@H]23)[C@H](OC(C)=O)[C@@H](OC(C)=O)[C@@H]1OC(C)=O |  |  |  | > 100 | 60 |  |  |  |  |  |  |  | > 100 |  |  |  | > 100 | 
O=C(OC[C@H]1O[C@H](O[C@@H]2OC=C[C@H]3[C@H](OC(=O)c4ccccc4)[C@@H]4O[C@]4(COC(=O)c4ccccc4)[C@@H]23)[C@H](OC(=O)c2ccccc2)[C@@H](OC(=O)c2ccccc2)[C@@H]1OC(=O)c1ccccc1)c1ccccc1 |  |  | > 100000 | > 100 | > 100 |  |  |  |  |  |  |  | > 100 | > 100 |  |  | > 100 | 
CC(C)(C)[Si](C)(C)OC[C@]12O[C@H]1[C@@H](O)[C@@H]1C=CO[C@@H](O[C@H]3O[C@H](CO)[C@@H](O)[C@H](O)[C@H]3O)[C@@H]12 |  |  | 52000 | 88 | 36 |  |  |  |  |  |  |  | 87 | 77 |  |  | 81 | 
OC[C@H]1O[C@@H](O[C@@H]2OC=C[C@H]3[C@H](O)[C@@H]4O[C@]4(CO)[C@@H]23)[C@H](O)[C@@H](O)[C@@H]1O [CATALPOL] |  |  |  | > 100 | > 100 |  |  |  |  |  |  |  | > 100 |  |  |  | > 100 | 
C[C@]1(O)C[C@@H](O)[C@]2(O)C=CO[C@@H](O[C@H]3O[C@H](CO)[C@@H](O)[C@H](O)[C@H]3O)[C@@H]21 [HARPAGIDE] |  |  |  | > 100 | > 100 |  |  |  |  |  |  |  | > 100 |  |  |  | > 100 | 
